# In patent publication EP1097716A1, “Dietary anti-adiposity food supplements and drugs based on thyrotropin-releasing hormone (TRH)” (Chronolife Inc., priority 1999, dated 2001):
# Key:
# [1] = Toxicity of increasing doses in the drinking water
# old female mice = assay: Chronic oral administration in drinking water, aging-related adiposity, body weight (Table 8); type: in vivo, BALB/cJ X C57BL/6 F1 female mice; conditions: n=15, Mean ± SD
# Text: With other words, progressive alteration of pineal-hypothalamic-pituitary-peripheral endocrine glands function in the course of aging leads to the most typical appearance of decreased tolerance to glucose (hyperglycemia), increased levels of lipids, in particular triglycerides and cholesterol (hyperlipidemia) and progressive accumulation of fat, which is not obesity but the most common expression of hormonal derangements. TRH taken chronically will maintain normal body weight in normal aging mice, while the normal controls put on fat and weight.
# The results reported in Table 8 clearly support the presumption that TRH is also capable of preventing onset of aging-related adiposity in humans.
# [2] = 20-day intraperitoneal treatment, blood levels of T3, T4 and TSH by radioimmunoassay in serum (Table 7); type: in vivo, C57BL/6 male mice; conditions: for T3 / T4 / TSH (µU/mL): serum, Mean ± SD
# Description: This is shown by Table 7 hereafter which report the results of assays which were ran under the following conditions.
# C57BL/6 male mice aged 9 months, were injected intraperitonealy for 20 days at 6 p.m. (evening) or at 8 a.m. (morning) with 0.5 ml volumes containing either 10 µg or 100 µg of TRH in bidistilled water. Controls were injected with the same amount of diluent. The mice were bled from the retroorbital venus plexus under rapid acute ether anaesthesia at 10 a.m. T3, T4 and TSH were measured by radioimmunoassay in the serum of individual mice. TABLE 7: […]
# [3] = tested on: obese, anterior hypothalamic area (AHA)-lesioned mice; assay: 20-day intraperitoneal treatment of obese AHA-lesioned mice, body weight (Table 3); type: in vivo, C57BL/6 male mice; conditions: N=6, Mean ± SD; for Body weight (g): p<0.05 vs before treatment
# Description: C57BL/6 male mice aged 7 months (AHA-lesioned at 2 months of age to induce obesity), were injected intraperitoneally for 20 days at 6 pm (evening) with 0.5 ml volume containing 10 µg TRH-tartrate in bidistilled water. Controls were injected with the same amount of diluent.
# [4] = tested on: anterior hypothalamic area (AHA)-lesioned obese mice; assay: 48-day intraperitoneal treatment of AHA-lesioned obese mice, body weight (Table 5); type: in vivo, C57BL/6 female mice; conditions: N=4, Mean ± SD
# Description: C57BL/6 female mice aged 8 months (AHA-lesioned at 2 months of age to induce obesity), were injected intraperitoneally for 48 days at 6 pm (evening) with 0.5 ml volume containing 10 µg TRH-tartrate in bidistilled water. Controls were injected with the same amount of diluent.
# [5] = 2 months treatment, blood levels of cholesterol and triglycerides in old mice (Table 9); type: in vivo, BALB/cJ female mice; conditions: 2 months treatment started in 20-month-old female mice, n = 10, dosages as for Table 7
# Text: Evidence that the lipid related compounds whose proportions in the blood circulation of old mice have a cause different from those observed in young mice treated with TRH seems further indicated by the fact that the weight of 16 month-old female mice, thus older mice which tend to accumulate age-related adiposity, can also be controlled and even reduced by the adsorption of TRH (see table 8). Indeed the contents in lipid-related compounds in the blood circulation of older mice (20 month-old mice) treated with TRH remain substantially unaltered, as evidenced by the results shown in Table 9 hereafter. The dosages of TRH were the same as in the assay reported in relation to Table 7.
# [6] = aging mice (18 month-old mice) compared with young, e.g. three month-old mice; cited from earlier work
# [7] = TRH evening (6 p.m.) 10 µg i.p. for 20 days
# [8] = TRH evening (6 p.m.) 100 µg i.p. for 20 days
# [9] = TRH morning (8 a.m.) 10 µg i.p. for 20 days
# [10] = TRH morning (8 a.m.) 100 µg i.p. for 20 days
molecule,measurement,setting,value
COc1ccc2[nH]cc(CCNC(C)=O)c2c1 [melatonin],toxicity,[1],not toxic
(pyro)Glu-His-Pro NH2 [TRH],Body weight (g) before treatment,old female mice; 16 month-old female mice,33.1 ± 3.2 (15) g
same,Body weight (g) after treatment,"old female mice; TRH-tartrate in the drinking water (100µg/ml) for 5 months, started at 16 months of age",33.8 ± 4.0 (15) g
same,T3,[2]; [7],0.82 ± 0.08 nmol/L
same,T4,[2]; [7],65.7 ± 4.2 nmol/L
same,TSH (µU/mL),[2]; [7],0.005 ± 0.004 µU/mL
same,T3,[2]; [8],0.91 ± 0.02 nmol/L
same,T4,[2]; [8],68.7 ± 13.1 nmol/L
same,TSH (µU/mL),[2]; [8],0.004 ± 0.005 µU/mL
same,T3,[2]; [9],1.03 ± 0.07 nmol/L
same,T4,[2]; [9],82.0 ± 1.9 nmol/L
same,TSH (µU/mL),[2]; [9],0.009 ± 0.006 µU/mL
same,T3,[2]; [10],0.84 ± 0.02 nmol/L
same,T4,[2]; [10],74.9 ± 13.3 nmol/L
same,TSH (µU/mL),[2]; [10],0.007 ± 0.005 µU/mL
same,acute toxicity,[2]; injected at huge dosages (up to 100 µg i.p. for 20 days),lack of acute toxicity
same,Body weight,"[3]; After 10 days of treatment, 10 µg TRH-tartrate i.p. daily at 6 pm",33.7 ± 4.2 g
same,Body weight (g),"[3]; After 20 days of treatment, 10 µg TRH-tartrate i.p. daily at 6 pm",32.0 ± 3.6^∗ g
same,Body weight (g),[3]; After withdrawal period of 5 days following 20-day treatment,31.1 ± 3.4^∗ g
same,Body weight,[3]; After withdrawal period of 60 days following 20-day treatment,38.3 ± 5.9 g
same,Body weight,"[3]; Before treatment, AHA-lesioned male mice aged 7 months",39.0 ± 6.2 g
same,Body weight,"[4]; After 27 days of treatment, 10 µg TRH-tartrate i.p. daily at 6 pm",39.2 ± 7.2 g
same,Body weight (g),"[4]; After 48 days of treatment, 10 µg TRH-tartrate i.p. daily at 6 pm, p<0.05 vs before treatment",32.6 ± 4.4^∗ g
same,Body weight,"[4]; Before treatment, AHA-lesioned female mice aged 8 months",42.2 ± 6.4 g
same,CHOLESTEROL,[5],1.65 ± 0.29 mmol/L
same,TRIGLYCERIDES,[5],1.19 ± 0.46 mmol/L
same,"levels of cholesterol, triglycerids and phospholipids",[6],brought back to values currently observed in young mice
